Converted amounts (≈) assume the structure as drawn.
Legend:
Type in all cases: functional
Bacillus spizizenii = assay: Antibacterial activity against Bacillus subtilis ATCC 6633 by micro broth dilution method
Candida albicans = assay: Antifungal activity against Candida albicans ATCC 10231 after 24 hrs by micro broth dilution method; conditions: ATCC 10231, 24 h
[1] = Antifungal activity against Candida mycoderma ATCC 9888 after 24 hrs by micro broth dilution method; conditions: Candida vini
Escherichia coli [2] = assay: Antibacterial activity against Escherichia coli JM109 by micro broth dilution method
Salmonella enterica = assay: Antibacterial activity against Salmonella enterica ATCC 14028 by micro broth dilution method
Cyberlindnera jadinii = assay: Antifungal activity against Candida utilis ATCC 9950 after 24 hrs by micro broth dilution method; conditions: Williopsis jadinii, ATCC 9950, 24 h
Staphylococcus aureus [3] = assay: Antibacterial activity against methicillin-resistant Staphylococcus aureus N315 by micro broth dilution method
Aspergillus flavus = assay: Antifungal activity against Aspergillus flavus ATCC 204304 after 24 hrs by micro broth dilution method; conditions: ATCC 204304, 24 h
Saccharomyces cerevisiae = assay: Antifungal activity against Saccharomyces cerevisiae ATCC 9763 after 24 hrs by micro broth dilution method; conditions: ATCC 9763, 24 h
[4] = Antibacterial activity against Bacillus proteus ATCC 13315 by micro broth dilution method
Shigella dysenteriae = assay: Antibacterial activity against Shigella dysenteriae by micro broth dilution method
Pseudomonas aeruginosa = assay: Antibacterial activity against Pseudomonas aeruginosa ATCC 27853 by micro broth dilution method
Staphylococcus aureus [5] = assay: Antibacterial activity against Staphylococcus aureus ATCC 25923 by micro broth dilution method
Escherichia coli [6] = assay: Antibacterial activity against Escherichia coli DH52 by micro broth dilution method
Micrococcus luteus = assay: Antibacterial activity against Micrococcus luteus ATCC 4698 by micro broth dilution method; conditions: NCTC 2665

SMILES	MIC (Bacillus spizizenii) [µg/mL]	MIC80 (Candida albicans) [µg/mL]	MIC80 [1] [µg/mL]	MIC (Escherichia coli [2]) [µg/mL]	MIC (Salmonella enterica) [µg/mL]	MIC80 (Cyberlindnera jadinii) [µg/mL]	MIC (Staphylococcus aureus [3]) [µg/mL]	MIC80 (Aspergillus flavus) [µg/mL]	MIC80 (Saccharomyces cerevisiae) [µg/mL]	MIC [4] [µg/mL]	MIC (Shigella dysenteriae) [µg/mL]	MIC (Pseudomonas aeruginosa) [µg/mL]	MIC (Staphylococcus aureus [5]) [µg/mL]	MIC (Escherichia coli [6]) [µg/mL]	MIC (Micrococcus luteus) [µg/mL]
CCn1cc(C(=O)O)c(=O)c2cc(F)c(N3CCN(Cc4nc5ccccc5[nH]4)CC3)cc21	1 (≈ 2.22 µM)	0.5 (≈ 1.11 µM)	1 (≈ 2.22 µM)	4 (≈ 8.9 µM)	0.5 (≈ 1.11 µM)	0.5 (≈ 1.11 µM)	1 (≈ 2.22 µM)	0.5 (≈ 1.11 µM)	0.5 (≈ 1.11 µM)	0.5 (≈ 1.11 µM)	2 (≈ 4.45 µM)	1 (≈ 2.22 µM)	2 (≈ 4.45 µM)	0.5 (≈ 1.11 µM)	1 (≈ 2.22 µM)
CCn1cc(C(=O)OC)c(=O)c2cc(F)c(N3CCN(/C=N\c4nc5ccccc5[nH]4)CC3)cc21	4 (≈ 8.39 µM)	64 (≈ 134 µM)	128 (≈ 269 µM)	64 (≈ 134 µM)	16 (≈ 33.6 µM)	64 (≈ 134 µM)	128 (≈ 269 µM)	64 (≈ 134 µM)	32 (≈ 67.2 µM)	32 (≈ 67.2 µM)	64 (≈ 134 µM)	8 (≈ 16.8 µM)	64 (≈ 134 µM)	32 (≈ 67.2 µM)	32 (≈ 67.2 µM)
CCn1cc(C(=O)O)c(=O)c2cc(F)c(N3CCN(Cc4nc5ccc(Cl)cc5[nH]4)CC3)cc21	16 (≈ 33.1 µM)	32 (≈ 66.1 µM)	8 (≈ 16.5 µM)	2 (≈ 4.13 µM)	0.5 (≈ 1.03 µM)	8 (≈ 16.5 µM)	1 (≈ 2.07 µM)	2 (≈ 4.13 µM)	8 (≈ 16.5 µM)	0.5 (≈ 1.03 µM)	1 (≈ 2.07 µM)	1 (≈ 2.07 µM)	2 (≈ 4.13 µM)	0.5 (≈ 1.03 µM)	1 (≈ 2.07 µM)
CCn1cc(C(=O)O)c(=O)c2cc(F)c(N3CCN(c4nc5ccccc5[nH]4)CC3)cc21	2 (≈ 4.59 µM)	8 (≈ 18.4 µM)	16 (≈ 36.7 µM)	8 (≈ 18.4 µM)	2 (≈ 4.59 µM)	8 (≈ 18.4 µM)	4 (≈ 9.19 µM)	16 (≈ 36.7 µM)	32 (≈ 73.5 µM)	1 (≈ 2.3 µM)	4 (≈ 9.19 µM)	2 (≈ 4.59 µM)	2 (≈ 4.59 µM)	2 (≈ 4.59 µM)	4 (≈ 9.19 µM)
CCn1cc(C(=O)O)c(=O)c2cc(F)c(N3CCN(CNc4nc5ccccc5[nH]4)CC3)cc21	8 (≈ 17.2 µM)	2 (≈ 4.31 µM)	1 (≈ 2.15 µM)	16 (≈ 34.4 µM)	2 (≈ 4.31 µM)	1 (≈ 2.15 µM)	0.5 (≈ 1.08 µM)	4 (≈ 8.61 µM)	8 (≈ 17.2 µM)	8 (≈ 17.2 µM)	0.5 (≈ 1.08 µM)	1 (≈ 2.15 µM)	2 (≈ 4.31 µM)	1 (≈ 2.15 µM)	4 (≈ 8.61 µM)
CCn1cc(C(=O)O)c(=O)c2cc(F)c(N3CCN(Cc4nc5ccccc5n4Cc4cccc(F)c4)CC3)cc21	128 (≈ 230 µM)	64 (≈ 115 µM)	64 (≈ 115 µM)	128 (≈ 230 µM)	8 (≈ 14.3 µM)	32 (≈ 57.4 µM)	32 (≈ 57.4 µM)	2 (≈ 3.59 µM)	2 (≈ 3.59 µM)	4 (≈ 7.17 µM)	1 (≈ 1.79 µM)	8 (≈ 14.3 µM)	128 (≈ 230 µM)	128 (≈ 230 µM)	64 (≈ 115 µM)
CCCn1c(CN2CCN(c3cc4c(cc3F)c(=O)c(C(=O)O)cn4C3CC3)CC2)nc2ccccc21	32 (≈ 63.5 µM)	0.25 (≈ 0.496 µM)	0.5 (≈ 0.993 µM)	4 (≈ 7.94 µM)	4 (≈ 7.94 µM)	0.5 (≈ 0.993 µM)	2 (≈ 3.97 µM)	0.5 (≈ 0.993 µM)	0.5 (≈ 0.993 µM)	32 (≈ 63.5 µM)	4 (≈ 7.94 µM)	1 (≈ 1.99 µM)	32 (≈ 63.5 µM)	1 (≈ 1.99 µM)	1 (≈ 1.99 µM)
CCn1c(CN2CCN(c3cc4c(cc3F)c(=O)c(C(=O)O)cn4C3CC3)CC2)nc2ccccc21	0.5 (≈ 1.02 µM)	2 (≈ 4.09 µM)	2 (≈ 4.09 µM)	128 (≈ 261 µM)	0.5 (≈ 1.02 µM)	2 (≈ 4.09 µM)	128 (≈ 261 µM)	4 (≈ 8.17 µM)	128 (≈ 261 µM)	0.5 (≈ 1.02 µM)	8 (≈ 16.3 µM)	2 (≈ 4.09 µM)	256 (≈ 523 µM)	2 (≈ 4.09 µM)	2 (≈ 4.09 µM)
CCn1cc(C(=O)O)c(=O)c2cc(F)c(N3CCN(Cc4nc5ccccc5n4Cc4ccccc4F)CC3)cc21	128 (≈ 230 µM)	512 (≈ 918 µM)	512 (≈ 918 µM)	512 (≈ 918 µM)	512 (≈ 918 µM)	512 (≈ 918 µM)	256 (≈ 459 µM)	512 (≈ 918 µM)	512 (≈ 918 µM)	512 (≈ 918 µM)	512 (≈ 918 µM)	512 (≈ 918 µM)	512 (≈ 918 µM)	512 (≈ 918 µM)	512 (≈ 918 µM)
CCCCCCCCCCCCCCCCCCn1c(CN2CCN(c3cc4c(cc3F)c(=O)c(C(=O)O)cn4CC)CC2)nc2ccccc21	128 (≈ 182 µM)	128 (≈ 182 µM)	64 (≈ 91.2 µM)	256 (≈ 365 µM)	256 (≈ 365 µM)	64 (≈ 91.2 µM)	128 (≈ 182 µM)	64 (≈ 91.2 µM)	128 (≈ 182 µM)	256 (≈ 365 µM)	256 (≈ 365 µM)	256 (≈ 365 µM)	256 (≈ 365 µM)	256 (≈ 365 µM)	128 (≈ 182 µM)
